The values that follow come from paper PMC3261128, “Modulation of phosphofructokinase (PFK) from Setaria cervi, a bovine filarial parasite, by different effectors and its interaction with some antifilarials” (2011).

SMILES strings stand for the structures.

What all share (type): biochemical
The target of test [1] is T1, Phosphofructokinase (PFK).
T1 construct: native enzyme purified from adult female worms
The test can be described thus: coupled enzyme assay (NADH oxidation), Ki and Hill plot.

For test [2], the target named is T2, rat liver PFK (phosphofructokinase) (Rattus norvegicus, UniProt P30835).
T2 construct: gene Pfkl; native enzyme partially purified from rat liver
T2 sequence (P30835 2-780): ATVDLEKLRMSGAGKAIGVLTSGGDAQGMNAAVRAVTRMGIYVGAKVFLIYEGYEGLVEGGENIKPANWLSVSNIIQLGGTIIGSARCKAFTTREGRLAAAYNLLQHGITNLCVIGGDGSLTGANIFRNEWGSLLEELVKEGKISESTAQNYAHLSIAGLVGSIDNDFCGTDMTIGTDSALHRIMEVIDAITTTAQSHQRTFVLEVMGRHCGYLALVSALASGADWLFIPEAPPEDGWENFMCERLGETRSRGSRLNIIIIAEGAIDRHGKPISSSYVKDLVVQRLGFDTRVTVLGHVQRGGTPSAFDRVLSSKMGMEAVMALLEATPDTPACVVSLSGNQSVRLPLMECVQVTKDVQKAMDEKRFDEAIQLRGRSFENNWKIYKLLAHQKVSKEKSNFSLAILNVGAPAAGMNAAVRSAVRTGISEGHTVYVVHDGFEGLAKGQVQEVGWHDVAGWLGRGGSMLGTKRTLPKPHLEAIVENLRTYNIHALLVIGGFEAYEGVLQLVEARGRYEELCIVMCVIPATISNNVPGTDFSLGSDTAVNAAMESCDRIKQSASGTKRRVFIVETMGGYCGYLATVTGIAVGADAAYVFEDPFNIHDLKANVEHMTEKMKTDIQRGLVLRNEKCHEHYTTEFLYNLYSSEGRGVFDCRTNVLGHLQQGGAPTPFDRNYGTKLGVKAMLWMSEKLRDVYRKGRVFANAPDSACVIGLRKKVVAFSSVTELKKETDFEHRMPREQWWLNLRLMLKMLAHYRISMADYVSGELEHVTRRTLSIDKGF
Described as above. The text has this:
coupled enzyme assay (NADH oxidation), Ki and Hill plot on rat liver PFK (phosphofructokinase) | inhibition of rat liver PFK was of the non-competitive type (Figure 5A) and the Ki value of suramin

Test [3] deals with T1, Phosphofructokinase (PFK). To be noted: 5000 µM.

With `Cc1ccc(C(=O)Nc2ccc(S(=O)(=O)O)c3cc(S(=O)(=O)O)cc(S(=O)(=O)O)c23)cc1NC(=O)c1cccc(NC(=O)Nc2cccc(C(=O)Nc3cc(C(=O)Nc4ccc(S(=O)(=O)O)c5cc(S(=O)(=O)O)cc(S(=O)(=O)O)c45)ccc3C)c2)c1` [suramin], the Ki in test [1] was 1.1 ± 0.1 nM; in test [2], 40 ± 1 nM.
Take `c1ccc([C@H]2CN3CCSC3=N2)cc1` [Levamisole]: in test [3], the “% Residual Activity / 5” value is given as 45.

As usually defined, the Ki is a dissociation constant, usually derived from enzyme kinetics or from competition with a known ligand. A high value points to weaker binding.
